Laboratory results: US10870678B2, “Chiral peptides” (ARCUATE THERAPEUTICS, INC., priority 2016, dated 2020)
Where two headings read alike, the source gives them in different places.

Legend:
[1] = system: HepG2 human liver cancer cell line; assay: Functional Mitochondrial Toxicity Assay, XFe96 Seahorse (HepG2); assay type: cell-based; conditions: HepG2
Experimental: (§1) The present Examples interrogate the two major energy producing pathways in the cell, mitochondrial respiration and glycolysis. HepG2 human liver cancer cell lines were dosed with test compounds and in real time the extracellular oxygen levels and pH were measured using the XFe96 flux analyser (Seahorse Biosciences). XFe Technology uses solid-state sensors to simultaneously measure both oxygen consumption rate (OCR) and extracellular acidification rate (ECAR) to determine effects on oxidative phosphorylation (OXPHOS) and glycolysis simultaneously. The cells were then subjected to sequential exposure to various inhibitors of mitochondrial functional to assess cellular metabolism.
(§2) A positive mitochondrial active compound is determined when there is a change in OCR or ECAR in the absence of cytotoxicity. Cytotoxicity was determined when both oxidative phosphorylation (OCR) and glycolysis (ECAR) were inhibited.
(§3) OCR is a measurement of oxygen content in extracellular media. Changes in OCR indicate effects on mitochondrial function, and can be bi-directional. A decrease is due to an inhibition of mitochondrial respiration, whilst an increase may indicate an uncoupler, in which respiration is not linked to energy production.
(§4) ECAR is the measurement of extracellular proton concentration (pH). An increase in signal means an increase in rate in number of pH ions (Thus decreasing pH value), and seen as an increase in glycolysis. Expressed as a fraction of basal control (rate prior to addition of compound).
(§5) Reverse capacity is the measured ability of cells to respond to an increase in energy demand, a reduction indicates mitochondrial dysfunction.
(§6) The Mitochondrial Stress Test is a series of sequential additions of compounds to the cells to assess a bioenergetics profile, and effects of test compounds on parameters such as proton leak and research capacity. This was used to assist in understanding potential mechanisms of mitochondrial toxicity. For example, it involves the addition of the follow compounds in this order:
Oligomycin is a known inhibitor of ATP synthase, and prevents the formation of ATP. This provides a measurement of the amount of oxygen consumption related to ATP production and ATP turnover. The addition of Oligomycin results in a decrease in OCR under normal conditions, and residual OCR is related to the natural proton leak.
Carbonyl cyanide 4-(trifluoromethoxy)phenylhydrazine (FCCP) is a protonphore, and is a known uncoupler of oxygen consumption from ATP production. This allows the maximum achievable transfer of electrons and oxygen consumption rate, and provides a measurement of reserve capacity.
Rotenone and antimycin A are known inhibitors of complex I and III of the electron transport chain, respectively. This inhibits electron transport completely, and any residual oxygen consumption is due to non-mitochondrial activity via oxygen requiring enzymes.

[2] = system: mitochondria; conditions: US 2004/0248808, U.S. Pat. No. 7,718,620; cited from earlier work
[3] = system: immortalized human trabecular meshwork (iHTM) cells; conditions: Chen et al. 2011; cited from earlier work
[4] = system: glaucomatous human trabecular meshwork (GTM3) cells; conditions: Chen et al. 2011; cited from earlier work
[5] = Szeto et al. 2013; cited from earlier work
[6] = system: mitochondria; conditions: cited from earlier work
[7] = system: GM16548 Rett syndrome human cell line; assay: Functional Mitochondrial Toxicity Assay (GM16548); assay type: cell-based
Experimental: as §1, §2, §3, §4, §5, §6
The present Example interrogates the two major energy producing pathways in the cell, mitochondrial respiration and glycolysis. A GM16548 Rett syndrome human cell line was dosed with test compound I-39 using the general protocol outlined in Example 2 above.

[8] = system: GM01061 Huntington Disease human cell line; assay: Functional Mitochondrial Toxicity Assay (GM01061); assay type: cell-based
Experimental: as §1, §2, §3, §4, §5, §6
The present Example interrogates the two major energy producing pathways in the cell, mitochondrial respiration and glycolysis. A GM01061 Huntington Disease human cell line was dosed with test compound I-39 using the general protocol outlined in Example 2 above.

[9] = system: GM01299 propionic acidemia human cell line; assay: Functional Mitochondrial Toxicity Assay (GM01299); assay type: cell-based
Experimental: as §1, §2, §3, §4, §5, §6
The present Example interrogates the two major energy producing pathways in the cell, mitochondrial respiration and glycolysis. A GM01299 propionic acidemia human cell line was dosed with test compound I-17 using the general protocol outlined in Example 2 above.

[10] = system: GM05162 Duchenne muscular dystrophy human cell line; assay: Functional Mitochondrial Toxicity Assay (GM05162); assay type: cell-based
Experimental: as §1, §2, §3, §4, §5, §6
The present Example interrogates the two major energy producing pathways in the cell, mitochondrial respiration and glycolysis. A GM05162 Duchenne muscular dystrophy human cell line was dosed with test compound I-17 using the general protocol outlined in Example 2 above.

[11] = read-out: Reserve Capacity AC50

Row | Compound | ECAR ↑↓ [1] | Reserve Capacity ↑↓ [1] | AC50 ([1]; read-out: OCR AC50) [µM] | Potential Mechanism [1] | AC50 ([1]; read-out: ECAR AC50) [µM] | AC50 [1, 11] [µM] | Potential Mechanism [7] | Reserve Capacity MEC [7] [µM] | Reserve Capacity ↑↓ [7] | AC50 ([7]; read-out: ECAR AC50) [µM] | AC50 ([7]; read-out: OCR AC50) [µM] | AC50 [7, 11] [µM] | Potential Mechanism [8] | AC50 ([8]; read-out: ECAR AC50) [µM] | AC50 [8, 11] [µM] | Reserve Capacity MEC [1] [µM] | Potential Mechanism [9] | Reserve Capacity MEC [9] [µM] | Reserve Capacity ↑↓ [9] | AC50 ([9]; read-out: ECAR AC50) [µM] | also measured
1 | (D-Arg)(L-Dmt)(L-Lys)(L-Phe)-NH2 [Peptide I-1, reference compound] | ↓ | ↑ | > 100 | – | – | – | – | – | – | – | – | – | – | – | – | – | – | – | – | – | Potential Mechanism ([1]; listed as I-1 (1)): No effect; AC50 ([1]; listed as I-1 (1), read-out: ECAR AC50): > 100 µM; AC50 ([1]; listed as I-1 (1), read-out: Reserve Capacity AC50): > 100 µM; ECAR MEC ([1]; listed as I-1 (2)): 14.3 µM; Potential Mechanism ([1]; listed as I-1 (2)): Other; Reserve Capacity MEC ([1]; listed as I-1 (2)): 90.3 µM; AC50 ([1]; listed as I-1 (2), read-out: ECAR AC50): > 100 µM; AC50 ([1]; listed as I-1 (2), read-out: Reserve Capacity AC50): > 100 µM; number of mitochondria undergoing MPT [2]: significantly reduce; sustained oxidative stress induced by H2O2 [3]: prevent; sustained oxidative stress induced by H2O2 [4]: prevent; binding to cardiolipin within the inner mitochondria membrane [5]: binding to cardiolipin; reactive oxygen species (ROS) in the mitochondria [6]: reduces
2 | (D-Phe)(D-Orn)(D-Tyr)(D-Orn)-NH2 [Peptide I-39] | ↓ | ↑ | > 100 | Other | > 100 | > 100 | Other | 60.2 | ↑ | > 100 | > 100 | > 100 | No effect | > 100 | > 100 | – | – | – | – | – | ECAR MEC ([1]; listed as I-39(1)): 30.1 µM; Reserve Capacity MEC ([1]; listed as I-39(1)): 92.4 µM; ECAR MEC ([1]; listed as I-39(2)): 15.3 µM; Reserve Capacity MEC ([1]; listed as I-39(2)): 67.6 µM; ECAR MEC ([1]; listed as I-39(3)): 21.2 µM; Reserve Capacity MEC ([1]; listed as I-39(3)): 77.3 µM
3 | O=C(O)CCC(=O)O [Succinate] | – | ↑ | > 100 | Uncoupler | > 100 | > 100 | Other | 72.3 | ↑ | > 100 | > 100 | > 100 | No effect | > 100 | > 100 | 62.5 | Other | 38.2 | ↑ | > 100 | OCR MEC [1]: 74.8 µM; OCR ↑↓ [1]: ↑; AC50 ([9]; read-out: OCR AC50): > 100 µM; AC50 [9, 11]: > 100 µM; ECAR MEC [10]: 0.179 µM; ECAR ↑↓ [10]: ↑; Potential Mechanism [10]: Other; AC50 ([10]; read-out: ECAR AC50): 2.91 µM; AC50 [10, 11]: > 100 µM
4 | CC(O)CC(=O)O (stereo not drawn) [β-OHB] | – | ↑ | > 100 | Other | > 100 | > 100 | Other | 23.1 | ↑ | > 100 | – | 72.2 | Other | > 100 | > 100 | 53.0 | Other | 25.3 | ↑ | > 100 | ECAR MEC [9]: 89.8 µM; ECAR ↑↓ [9]: ↓; AC50 ([9]; read-out: OCR AC50): > 100 µM; AC50 [9, 11]: > 100 µM; Potential Mechanism [10]: Other; Reserve Capacity MEC [10]: 1.15 µM; Reserve Capacity ↑↓ [10]: ↑; AC50 ([10]; read-out: ECAR AC50): > 100 µM; AC50 [10, 11]: 69.5 µM; Reserve Capacity MEC [8]: 81.1 µM; Reserve Capacity ↑↓ [8]: ↑; AC50 ([8]; read-out: OCR AC50): > 100 µM
